Test results taken from patent US5189144A, “Human calpastatin-like polypeptide” (Takara Shuzo Co., Ltd., priority 1989, dated 1993).
“Also recorded” adds a separate entry of the source. No end group written: not given here.

Tested on: calpain
Assay: assay of calpain inhibition (casein substrate, acid-soluble fraction read at 280 nm)
Format: biochemical
Conditions: 15 min at 30° C. after adding calcium chloride, absorbance at 280 nm of the supernatant, profiles only in FIGS. 3 and 4
Method: Confirmation of expression can be done by the measurement of the inhibition of calpain, as in the measurement done with casein as the substrate, with extraction from a culture fluid of E. coli, and measurement of the decrease in the acid-soluble fraction by the use of spectroscopy.
The assay of calpain inhibition was done as described below (A. Kitahara et al., J. Biochem., 95, 1759-1766, 1984). First, 10 μl of the sample 2.5 μl of calpain at the concentration of 1 mg/ml, 40 μl of 2% casein in imidazole, and 20 μl of crysteine at the concentration of 6 mg/ml were mixed together, giving a total volume of 180 μl. Next, the mixture was treated for 5 min at 30° C., after which 20 μl of 50 mM calcium chloride was added, and the mixture was incubated for 15 min at 30° C. Then 200 μl of 5% trichloroacetic acid was added to stop the reaction, and the mixture was centrifuged at 12,000 rpm for 10 min. The supernatant was obtained, and its absorbance at 280 nm was measured, from which the inhibitory activity toward calpain was calculated.

Sequence	inhibitory activity toward calpain
DPMSSTYIEELGKREVTIPPKYRELL [polypeptide of 26 amino acids]	can inhibit calpain; also recorded: had calpastatin-like activity
TYIEELGKREVTIPPKYRELL [polypeptide of 21 amino acids]	can inhibit calpain; also recorded: had calpastatin-like activity
TYIEELGKREVTIPPKYR [polypeptide of 18 amino acids]	can inhibit calpain; also recorded: still has activity; also recorded: inhibited calpain
YIEELGKREVTIPPKYR [polypeptide with 17 amino acids, reference compound]	almost undetectable
